The EC50 is the concentration giving half of the maximal effect.

Some results are limits rather than exact numbers.

Our source for the EC50 values is patent publication US11261186B2, “Biaryl derivative as GPR120 agonist” (LG CHEM, LTD., priority 2014, dated 2022).

The target of the assay is T1, hGPR120 (Homo sapiens, UniProt Q5NUL3).
T1 construct: expressed in transfected cells; host or cells: CHO-K1
T1 sequence (Q5NUL3 1-361): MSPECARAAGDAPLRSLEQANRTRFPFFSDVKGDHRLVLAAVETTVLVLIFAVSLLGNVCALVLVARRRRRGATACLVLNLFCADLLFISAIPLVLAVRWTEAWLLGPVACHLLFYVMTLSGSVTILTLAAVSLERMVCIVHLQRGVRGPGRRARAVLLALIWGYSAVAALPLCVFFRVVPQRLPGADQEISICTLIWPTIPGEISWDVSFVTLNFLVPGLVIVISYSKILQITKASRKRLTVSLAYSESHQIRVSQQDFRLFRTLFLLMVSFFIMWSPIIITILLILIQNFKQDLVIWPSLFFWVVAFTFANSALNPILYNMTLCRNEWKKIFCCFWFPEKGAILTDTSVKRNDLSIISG
The assay is described as follows: Measurement of Activity of GPR120 Agonist (Cell-Based Assay), Calcium 5 dye fluorescence. To be noted: CHO-K1 cells expressing Ga16 and hGPR120. The gist of the method:
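After an 18 h incubation at 37 °C, the transfected CHO-K1 cells (Gα16, hGPR120) received Calcium 5 dye for 1 h; compound dilutions in 0.5% DMSO were then injected and emission at 525 nm recorded, with values given as % of the vehicle response.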

Consider `O=C(O)CCCSc1ccc(-c2cccc3c2OC2(CCCC2)O3)cc1` [Example 156, 4-(4-spiro[1,3-benzodioxol-2,1′-cyclopentane]-4-ylphenyl)sulfanylbutanoic acid], for which the EC50 was in the range of 200 to 2000 nM. As for `O=C(O)CCCSc1ccc(-c2cccc3c2OC2(CCCC2)O3)cc1F` [Example 157, 4-(2-fluoro-4-spiro[1,3-benzodioxol-2,1′-cyclopentan]-4-yl-phenyl)sulfanylbutanoic acid], the EC50 is under 200 nM. With `CC(C)Oc1ncccc1-c1ccc(C(C)(C)CCCC(=O)O)cc1` [Example 158, 5-[4-(2-isopropoxy-pyridin-3-yl)-phenyl]-5-methyl-hexanoic acid] the figure was 200 to 2000 nM; with `CC(C)Sc1ncccc1-c1ccc(C(C)(C)CCCC(=O)O)cc1` [Example 159, 5-[4-(2-isopropylsulfanyl-pyridin-3-yl)-phenyl]-5-methyl-hexanoic acid], under 200 nM.

As to `CC(C)(CCCC(=O)O)c1ccc(-c2cccnc2OC2CCCC2)cc1` [Example 160, 5-[4-(2-cyclopentyloxy-pyridin-3-yl)-phenyl]-5-methyl-hexanoic acid], the EC50 is under 200 nM. Take `CC(C)(CCCC(=O)O)c1ccc(-c2cccnc2OC2CCCC2)cc1F` [Example 161, 5-[4-(2-cyclopentyloxy-pyridin-3-yl)-2-fluoro-phenyl]-5-methyl-hexanoic acid]: the EC50 is 200 to 2000 nM. For `CC(C)(CCCC(=O)O)c1c(F)cc(-c2cccnc2OC2CCCC2)cc1F` [Example 162, 5-[4-(2-cyclopentyloxy-pyridin-3-yl)-2,6-difluoro-phenyl]-5-methyl-hexanoic acid] the value was 200 to 2000 nM. Take `CC(C)(CCCC(=O)O)c1ccc(-c2cccnc2SC2CCCC2)cc1` [Example 163, 5-[4-(2-cyclopentylsulfanyl-pyridin-3-yl)-phenyl]-5-methyl-hexanoic acid]: the EC50 was 200 to 2000 nM. As to `CC(C)(CCCC(=O)O)c1c(F)cc(-c2cccnc2SC2CCC2)cc1F` [Example 164, 5-[4-(2-cyclobutylsulfanyl-pyridin-3-yl)-2,6-difluoro-phenyl]-5-methyl-hexanoic acid], the EC50 is 200 to 2000 nM.

Turning to `CC(C)(CCCC(=O)O)c1ccc(-c2cccnc2SC2CCC2)cc1` [Example 165, 5-[4-(2-cyclobutylsulfanyl-pyridin-3-yl)-phenyl]-5-methyl-hexanoic acid], the EC50 was under 200 nM.

As to `O=C(O)CCCC1(c2c(F)cc(-c3cccnc3OC3CCCC3)cc2F)CC1` [Example 166, 4-{1-[4-(2-cyclopentyloxy-pyridin-3-yl)-2,6-difluoro-phenyl]-cyclopropyl}-butyric acid], the EC50 is under 200 nM.

With `O=C(O)CCCC1(c2c(F)cc(-c3cccnc3SC3CCC3)cc2F)CC1` [Example 167, 4-{1-[4-(2-cyclobutylsulfanyl-pyridin-3-yl)-2,6-difluoro-phenyl]-cyclopropyl}-butyric acid], the EC50 lay within 200 to 2000 nM.

Take `O=C(O)CCCC1(c2c(F)cc(-c3cccc(OC4CCC4)n3)cc2F)CC1` [Example 168, 4-{1-[4-(6-cyclobutoxy-pyridin-2-yl)-2,6-difluoro-phenyl]-cyclopropyl}-butyric acid]: the EC50 was under 200 nM.

As for `O=C(O)CCCC1(c2c(F)cc(-c3cccnc3OCC3CCC3)cc2F)CC1` [Example 169, 4-{1-[4-(2-cyclobutylmethoxy-pyridin-3-yl)-2,6-difluoro-phenyl]-cyclopropyl}-butyric acid], the EC50 is 200 to 2000 nM. With `O=C(O)CCCC1(c2c(F)cc(-c3cccc(OCC4CC4)n3)cc2F)CC1` [Example 170, 4-{1-[4-(6-cyclopropylmethoxy-pyridin-2-yl)-2,6-difluoro-phenyl]-cyclopropyl}-butyric acid] the figure was under 200 nM; with `CC(CCCC(=O)O)c1c(F)cc(-c2cccc3c2OC(F)(F)O3)cc1F` (centres unmarked) [Example 171, 5-[4-(2,2-difluoro-benzo[1,3]dioxol-4-yl)-2,6-difluoro-phenyl]-hexanoic acid], under 200 nM; with `O=C(O)COCC(F)(F)c1ccc(-c2cccnc2OC2CCCC2)cc1` [Example 172, {2-[4-(2-cyclopentyloxy-pyridin-3-yl)-phenyl]-2,2-difluoro-ethoxy}-acetic acid], 2000 to 20000 nM.

Turning to `O=C(O)COCC(F)(F)c1ccc(-c2cccnc2SC2CCC2)cc1` [Example 173, {2-[4-(2-cyclobutylsulfanyl-pyridin-3-yl)-phenyl]-2,2-difluoro-ethoxy}-acetic acid], the EC50 is 2000 to 20000 nM. Consider `O=C(O)COCC(F)(F)c1ccc(-c2cccc(OC3CCC3)n2)cc1` [Example 174, {2-[4-(6-cyclobutoxy-pyridin-2-yl)-phenyl]-2,2-difluoro-ethoxy}-acetic acid], for which the EC50 lay within 200 to 2000 nM. In the case of `O=C(O)CCC1CC1c1c(F)cc(-c2cccnc2OC2CCCC2)cc1F` (centres unmarked) [Example 175, 3-{2-[4-(2-cyclopentyloxy-pyridin-3-yl)-2,6-difluoro-phenyl]-cyclopropyl}-propanoic acid], the EC50 is under 200 nM. With `O=C(O)CCC1CC1c1c(F)cc(-c2cccnc2SC2CCC2)cc1F` (centres unmarked) [Example 176, 3-{2-[4-(2-cyclobutylsulfanyl-pyridin-3-yl)-2,6-difluoro-phenyl]-cyclopropyl}-propanoic acid] the figure was under 200 nM. For `O=C(O)CCCC(F)(F)c1ccc(-c2cccnc2OC2CCCC2)cc1` [Example 177, 5-[4-(2-cyclopentyloxy-pyridin-3-yl)-phenyl]-5,5-difluoro-pentanoic acid] the value was under 200 nM. With `O=C(O)CCCC(F)(F)c1ccc(-c2cccnc2SC2CCC2)cc1` [Example 178, 5-[4-(2-cyclobutylsulfanyl-pyridin-3-yl)-phenyl]-5,5-difluoro-pentanoic acid] the figure was under 200 nM. In the case of `CCCSc1ncccc1-c1cc(F)c(C2CC2CCC(=O)O)c(F)c1` (centres unmarked) [Example 179, 3-{2-[2,6-difluoro-4-(2-propylsulfanyl-pyridin-3-yl)-phenyl]-cyclopropyl}-propanoic acid], the EC50 is under 200 nM. Turning to `O=C(O)CCC1CC1c1c(F)cc(-c2cccc(OC3CCC3)n2)cc1F` (centres unmarked) [Example 180, 3-{2-[4-(6-cyclobutoxy-pyridin-2-yl)-2,6-difluoro-phenyl]-cyclopropyl}-propanoic acid], the EC50 is under 200 nM. Regarding `O=C(O)CCCC(F)(F)c1ccc(-c2cccnc2OCC2CC2)cc1` [Example 181, 5-[4-(2-cyclopropylmethoxy-pyridin-3-yl)-phenyl]-5,5-difluoro-pentanoic acid], the EC50 is under 200 nM. With `O=C(O)CCC1CC1c1c(F)cc(-c2cccnc2SC2CCCC2)cc1F` (centres unmarked) [Example 182, 3-{2-[4-(2-cyclopentylsulfanyl-pyridin-3-yl)-2,6-difluoro-phenyl]-cyclopropyl}-propanoic acid] the figure was under 200 nM.

Consider `O=C(O)CCC1CC1c1c(F)cc(-c2cccnc2NC2CCCC2)cc1F` (centres unmarked) [Example 183, 3-{2-[4-(2-cyclopentylamino-pyridin-3-yl)-2,6-difluoro-phenyl]-cyclopropyl}-propanoic acid], for which the EC50 was under 200 nM.

In the case of `O=C(O)CCCC(F)(F)c1ccc(-c2cccnc2SC2CCCC2)cc1` [Example 184, 5-[4-(2-cyclopentylsulfanyl-pyridin-3-yl)-phenyl]-5,5-difluoro-pentanoic acid], the EC50 is under 200 nM. For `O=C(O)CCCC(F)(F)c1ccc(-c2cccnc2OC2CCC2)cc1` [Example 185, 5-[4-(2-cyclobutoxy-pyridin-3-yl)-phenyl]-5,5-difluoro-pentanoic acid] the value was under 200 nM. Take `O=C(O)CCCC(F)(F)c1ccc(-c2cccc(OC3CCC3)n2)cc1` [Example 186, 5-[4-(6-cyclobutoxy-pyridin-2-yl)-phenyl]-5,5-difluoro-pentanoic acid]: the EC50 is under 200 nM. Take `O=C(O)CC1CCC(c2ccc(-c3cccnc3OC3CCCC3)cc2F)CC1` (centres unmarked) [Example 187, {4-[4-(2-cyclopentyloxy-pyridin-3-yl)-2-fluoro-phenyl]-cyclohexyl}-acetic acid]: the EC50 fell in the range of 200 to 2000 nM.

Consider `O=C(O)CCC1CC1c1c(F)cc(-c2cccnc2OC2CCC2)cc1F` (centres unmarked) [Example 188, 3-{2-[4-(2-cyclobutoxy-pyridin-3-yl)-2,6-difluoro-phenyl]-cyclopropyl}-propanoic acid], for which the EC50 was under 200 nM. Take `O=C(O)CCC1CC1c1c(F)cc(-c2cccnc2OCC2CCC2)cc1F` (centres unmarked) [Example 189, 3-{2-[4-(2-cyclobutylmethoxy-pyridin-3-yl)-2,6-difluoro-phenyl]-cyclopropyl}-propanoic acid]: the half-maximal effective concentration (EC50) was under 200 nM. With `O=C(O)CCC1CC1c1c(F)cc(-c2cccnc2OC2CCOCC2)cc1F` (centres unmarked) [Example 190, 3-(2-{2,6-difluoro-4-[2-(tetrahydro-pyran-4-yloxy)-pyridin-3-yl]-phenyl}-cyclopropyl)-propanoic acid] the figure was 200 to 2000 nM; with `O=C(O)CCC1CC1c1c(F)cc(-c2cccc(OCC3CC3)n2)cc1F` (centres unmarked) [Example 191, 3-{2-[4-(6-cyclopropylmethoxy-pyridin-2-yl)-2,6-difluoro-phenyl]-cyclopropyl}-propanoic acid], under 200 nM; with `CC(C)Sc1cccc(-c2ccc(C(F)(F)CCCC(=O)O)cc2)n1` [Example 192, 5,5-difluoro-5-[4-(6-isopropylsulfanyl-pyridin-2-yl)-phenyl]-pentanoic acid], under 200 nM.

Consider `CC1(C)Cc2c(cccc2-c2ccc(OCCCC(=O)O)cc2)O1` [Example 193, 4-[4-(2,2-dimethyl-2,3-dihydro-benzofuran-4-yl)-phenoxy]-butyric acid], for which the EC50 is under 200 nM.
